The values that follow come from patent US11730720B2, “ALK5 inhibitors” (THERAVANCE BIOPHARMA R&D IP, LLC, priority 2018, dated 2023).

Each structure is given as a SMILES string.

Assay [1] concerns TGF-β-stimulated SMAD3 phosphorylation in BEAS-2B cells. The assay can be described thus: Cellular ALK5 potency assay, inhibition of TGF-β stimulated pSMAD3 formation in BEAS-2B cells. The format is cell-based. The settings on record: Homo sapiens, inhibition of TGF-β (10 ng/mL) stimulated pSMAD3 formation, 1 hour compound incubation, read-out: BEAS2B pIC50 (converted). The method, boiled down: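 Phospho-SMAD3 was quantified by AlphaLISA in lysates of human lung epithelial BEAS-2B cells. Compound was added 1 h (37 °C, HEPES/BSA-supplemented HBSS) before a 30 min challenge with 10 ng/mL TGF-β. Values are pIC50 relative to stimulated cells without compound.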

Assay [2] concerns the target T1, recombinant human ALK5 (TGF-βR1) protein (Homo sapiens, UniProt P36897).
T1 construct: purchased Life Technologies PR9075A
T1 sequence (P36897 34-503): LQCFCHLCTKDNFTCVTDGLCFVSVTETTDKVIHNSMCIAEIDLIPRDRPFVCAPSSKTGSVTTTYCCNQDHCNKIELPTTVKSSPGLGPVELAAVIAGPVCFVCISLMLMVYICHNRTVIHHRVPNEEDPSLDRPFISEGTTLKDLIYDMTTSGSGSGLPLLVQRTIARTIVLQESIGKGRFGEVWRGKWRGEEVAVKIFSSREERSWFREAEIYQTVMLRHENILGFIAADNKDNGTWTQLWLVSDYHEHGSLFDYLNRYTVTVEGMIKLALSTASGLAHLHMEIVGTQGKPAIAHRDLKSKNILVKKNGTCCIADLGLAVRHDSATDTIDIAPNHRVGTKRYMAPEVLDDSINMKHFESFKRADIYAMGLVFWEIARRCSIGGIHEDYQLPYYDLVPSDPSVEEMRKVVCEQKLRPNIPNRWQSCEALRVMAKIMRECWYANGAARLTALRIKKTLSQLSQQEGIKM
The assay can be described thus: Biochemical ALK5 (TGF-βR1) assay to measure pKi (LANCE Ultra ULight kinase assay). The settings on record: apparent pKi, converted from pIC50 using the Cheng-Prusoff equation. The method, boiled down:
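TR-FRET kinase format: compound dose range 10 μM–25 pM equilibrated 60 min with human ALK5 and ULight-labelled topoisomerase 2α peptide in HEPES/MgCl2 buffer pH 7.5 with DTT. Reaction started with ATP (125 μM stock, 5× final), 60 min at 37° C, stopped with EDTA/Eu-anti-phospho antibody; pKi derived from pIC50 via Cheng-Prusoff.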

For the compound `NCCn1cc(-c2cnc3ccc(-c4nc[nH]c4-c4cc(Cl)ccc4F)nc3c2)cn1` [Compound 2-20, 2-[4-[6-[5-(5-chloro-2-fluoro-phenyl)-1H-imidazol-4-yl]-1,5-naphthyridin-3-yl]pyrazol-1-yl]ethanamine], the IC50 in assay [1] is 25.1 to 158 nM. The Ki in assay [2] is 0.0398 to 0.316 nM.
The like results for `Fc1ccc(Cl)cc1-c1[nH]cnc1-c1ccc2ncc(-c3cc4n(n3)CCNC4)cc2n1` [Compound 2-21, 2-(5-(5-chloro-2-fluorophenyl)-1H-imidazol-4-yl)-7-(4,5,6,7-tetrahydropyrazolo[1,5-a]pyrazin-2-yl)-1,5-naphthyridine] were, in that order, 25.1 to 158 nM and 0.0398 to 0.316 nM.
For `Fc1ccc(Cl)cc1-c1[nH]cnc1-c1ccc2ncc(-c3cnn4c3CNCC4)cc2n1` [Compound 2-22, 2-[5-(5-chloro-2-fluoro-phenyl)-1H-imidazol-4-yl]-7-(4,5,6,7-tetrahydropyrazolo[1,5-a]pyrazin-3-yl)-1,5-naphthyridine], in that order: 25.1 to 158 nM and 0.0398 to 0.316 nM.
For `Fc1ccc(Cl)cc1-c1[nH]cnc1-c1ccc2ncc(-c3nnn4c3CNCC4)cc2n1` [Compound 2-23, 2-[5-(5-chloro-2-fluoro-phenyl)-1H-imidazol-4-yl]-7-(4,5,6,7-tetrahydrotriazolo[1,5-a]pyrazin-3-yl)-1,5-naphthyridine], in that order: 25.1 to 158 nM and 0.0398 to 0.316 nM.
With `Fc1ccc(Cl)cc1-c1[nH]cnc1-c1ccc2ncc(-c3cnc4n3CCNC4)cc2n1` [Compound 2-24, 2-[5-(5-chloro-2-fluoro-phenyl)-1H-imidazol-4-yl]-7-(5,6,7,8-tetrahydroimidazo[1,2-a]pyrazin-3-yl)-1,5-naphthyridine], in assay [1], the IC50 is 25.1 to 158 nM. Moreover, the Ki in assay [2] is 0.0398 to 0.316 nM.
For `Fc1ccc(Cl)cc1-c1[nH]cnc1-c1ccc2ncc(-c3nc4n(n3)CCNC4)cc2n1` [Compound 2-25, 2-[5-(5-chloro-2-fluoro-phenyl)-1H-imidazol-4-yl]-7-(5,6,7,8-tetrahydro-[1,2,4]triazolo[1,5-a]pyrazin-2-yl)-1,5-naphthyridine], in that order: 25.1 to 158 nM and 0.0398 to 0.316 nM.
For `Fc1ccc(Cl)cc1-c1[nH]cnc1-c1ccc2ncc(NCCN3CCCC3)cc2n1` [Compound 2-26, 6-[5-(5-chloro-2-fluoro-phenyl)-1H-imidazol-4-yl]-N-(2-pyrrolidin-1-ylethyl)-1,5-naphthyridin-3-amine], in that order: no more than 20 nM and 0.0398 to 0.316 nM.
In the case of `Fc1ccc(Cl)cc1-c1[nH]cnc1-c1ccc2ncc(Nc3ccc(N4CCN(Cc5ccccc5)CC4)cn3)cc2n1` [Compound 2-27, N-[5-(4-benzylpiperazin-1-yl)-2-pyridyl]-6-[5-(5-chloro-2-fluoro-phenyl)-1H-imidazol-4-yl]-1,5-naphthyridin-3-amine], in assay [1], the IC50 is 25.1 to 158 nM. Besides, in assay [2], the Ki is 3.98 to 31.6 nM.
As for `O=C(O)[C@H]1CN(c2cnc3ccc(-c4nc[nH]c4-c4cc(Cl)ccc4F)nc3c2)CCN1` [Compound 2-28, (2R)-4-[6-[5-(5-chloro-2-fluoro-phenyl)-1H-imidazol-4-yl]-1,5-naphthyridin-3-yl]piperazine-2-carboxylic acid], the IC50 in assay [1] is 200 to 1260 nM. Also, the Ki in assay [2] is 0.398 to 3.16 nM.
As for `C[C@@H]1CN(CCNc2cnc3ccc(-c4nc[nH]c4-c4cc(Cl)ccc4F)nc3c2)C[C@H](C)N1` [Compound 2-29, 6-(5-(5-chloro-2-fluorophenyl)-1H-imidazol-4-yl)-N-(2-((3S,5R)-3,5-dimethylpiperazin-1-yl)ethyl)-1,5-naphthyridin-3-amine], the IC50 in assay [1] was 25.1 to 158 nM. Further, the Ki in assay [2] is 0.0398 to 0.316 nM.
With `Fc1ccc(Cl)cc1-c1[nH]cnc1-c1ccc2ncc(NC[C@@H]3CCCN3)cc2n1` [Compound 2-30, 6-[5-(5-chloro-2-fluoro-phenyl)-1H-imidazol-4-yl]-N-[[(2S)-pyrrolidin-2-yl]methyl]-1,5-naphthyridin-3-amine], in assay [1], the IC50 is 200 to 1260 nM. The Ki in assay [2] was 0.398 to 3.16 nM.
The like results for `Fc1ccc(Cl)cc1-c1[nH]cnc1-c1ccc2ncc(NCC3CCCCN3)cc2n1` (stereo not drawn) [Compound 2-31, 6-[5-(5-chloro-2-fluoro-phenyl)-1H-imidazol-4-yl]-N-(2-piperidylmethyl)-1,5-naphthyridin-3-amine] were, in that order, 25.1 to 158 nM and 0.398 to 3.16 nM.
In the case of `O=C(O)CC1CNCCN1c1cnc2ccc(-c3nc[nH]c3-c3cc(Cl)ccc3F)nc2c1` (stereo not drawn) [Compound 2-32, 2-[1-[6-[5-(5-chloro-2-fluoro-phenyl)-1H-imidazol-4-yl]-1,5-naphthyridin-3-yl]piperazin-2-yl]acetic acid], the IC50 in assay [1] is 200 to 1260 nM. For the same compound, in assay [2], the Ki is 3.98 to 31.6 nM.
Regarding `O=C(O)CC1CNCCN1CCNc1cnc2ccc(-c3nc[nH]c3-c3cc(Cl)ccc3F)nc2c1` (stereo not drawn) [Compound 2-34, 2-[1-[2-[[6-[5-(5-chloro-2-fluoro-phenyl)-1H-imidazol-4-yl]-1,5-naphthyridin-3-yl]amino]ethyl]piperazin-2-yl]acetic acid], in assay [1], the IC50 is 200 to 1260 nM. The Ki in assay [2] is 0.0398 to 0.316 nM.
Take `COC(=O)CC1CNCCN1CCNc1cnc2ccc(-c3nc[nH]c3-c3cc(Cl)ccc3F)nc2c1` (stereo not drawn) [Compound 2-35, methyl 2-[1-[2-[[6-[5-(5-chloro-2-fluoro-phenyl)-1H-imidazol-4-yl]-1,5-naphthyridin-3-yl]amino]ethyl]piperazin-2-yl]acetate]: the IC50 in assay [1] was 25.1 to 158 nM. Moreover, the Ki in assay [2] was 0.0398 to 0.316 nM.
For `COC(=O)CC1CN(CCNc2cnc3ccc(-c4nc[nH]c4-c4cc(Cl)ccc4F)nc3c2)CCN1` (stereo not drawn) [Compound 2-36, methyl 2-[4-[2-[[6-[5-(5-chloro-2-fluoro-phenyl)-1H-imidazol-4-yl]-1,5-naphthyridin-3-yl]amino]ethyl]piperazin-2-yl]acetate], in that order: 25.1 to 158 nM and 0.0398 to 0.316 nM.
The like results for `Cc1oc(=O)oc1CN1CCN(c2cnc3ccc(-c4nc[nH]c4-c4cc(Cl)ccc4F)nc3c2)CC1` [Compound 2-37, 4-[[4-[6-[5-(5-chloro-2-fluoro-phenyl)-1H-imidazol-4-yl]-1,5-naphthyridin-3-yl]piperazin-1-yl]methyl]-5-methyl-1,3-dioxol-2-one] were, in that order, 200 to 1260 nM and 0.0398 to 0.316 nM.
The like results for `CCOC(=O)[C@H]1CN(c2cnc3ccc(-c4nc[nH]c4-c4cc(Cl)ccc4F)nc3c2)CCN1` [Compound 2-38, ethyl (2R)-4-[6-[5-(5-chloro-2-fluoro-phenyl)-1H-imidazol-4-yl]-1,5-naphthyridin-3-yl]piperazine-2-carboxylate] were, in that order, 25.1 to 158 nM and 3.98 to 31.6 nM.
As to `CC(C)N1CCN(CCNc2cnc3ccc(-c4c(-c5cc(Cl)ccc5F)nc5ccccn45)nc3c2)CC1` [Compound 3-1, 6-(2-(5-chloro-2-fluorophenyl)imidazo[1,2-a]pyridin-3-yl)-N-(2-(4-isopropylpiperazin-1-yl)ethyl)-1,5-naphthyridin-3-amine], the IC50 in assay [1] is 25.1 to 158 nM. The Ki in assay [2] is 0.0398 to 0.316 nM.
The like results for `Fc1ccc(Cl)cc1-c1nc2ccccn2c1-c1ccc2ncc(N3CCNCC3)cc2n1` [Compound 3-2, 2-(2-(5-chloro-2-fluorophenyl)imidazo[1,2-a]pyridin-3-yl)-7-(piperazin-1-yl)-1,5-naphthyridine] were, in that order, 200 to 1260 nM and 0.0398 to 0.316 nM.
For `Fc1ccc(Cl)cc1-c1nc2ccccn2c1-c1ccc2ncc(N3CCCNCC3)cc2n1` [Compound 3-3, 2-[2-(5-chloro-2-fluoro-phenyl)imidazo[1,2-a]pyridin-3-yl]-7-(1,4-diazepan-1-yl)-1,5-naphthyridine], in that order: 25.1 to 158 nM and 0.0398 to 0.316 nM.
On to `CN1CCN(C2CCN(c3cnc4ccc(-c5c(-c6cc(Cl)ccc6F)nc6ccccn56)nc4c3)CC2)CC1` [Compound 3-5, 2-[2-(5-chloro-2-fluoro-phenyl)imidazo[1,2-a]pyridin-3-yl]-7-[4-(4-methylpiperazin-1-yl)-1-piperidyl]-1,5-naphthyridine], for which the IC50 in assay [1] was 200 to 1260 nM. Also, the Ki in assay [2] is 0.0398 to 0.316 nM.
For `Fc1ccc(Cl)cc1-c1nc2ccccn2c1-c1ccc2ncc(-c3nnn4c3CNCC4)cc2n1` [Compound 3-6, 2-(2-(5-chloro-2-fluorophenyl)imidazo[1,2-a]pyridin-3-yl)-7-(4,5,6,7-tetrahydro-[1,2,3]triazolo[1,5-a]pyrazin-3-yl)-1,5-naphthyridine], the IC50 in assay [1] is 25.1 to 158 nM. Further, the Ki in assay [2] is 0.0398 to 0.316 nM.
As to `Fc1ccc(Cl)cc1-c1nc2ccccn2c1-c1ccc2ncc(-c3cnn4c3CNCC4)cc2n1` [Compound 3-7, 2-[2-(5-chloro-2-fluoro-phenyl)imidazo[1,2-a]pyridin-3-yl]-7-(4,5,6,7-tetrahydropyrazolo[1,5-a]pyrazin-3-yl)-1,5-naphthyridine], in assay [1], the IC50 was 25.1 to 158 nM. Further, the Ki in assay [2] is 0.0398 to 0.316 nM.
